Measurements from ChEMBL document CHEMBL5465560, “Selectivity Literature for EUbOPEN Chemogenomic Library” (2024).

What was measured:
[1] = molecular target: T1, Dual specificity mitogen-activated protein kinase kinase 4 (Homo sapiens) (UniProt P45985); assay: Selectivity interaction (Kinase panel (DSF assay)) EUB0001558a MAP2K4
T1 sequence (whole entry): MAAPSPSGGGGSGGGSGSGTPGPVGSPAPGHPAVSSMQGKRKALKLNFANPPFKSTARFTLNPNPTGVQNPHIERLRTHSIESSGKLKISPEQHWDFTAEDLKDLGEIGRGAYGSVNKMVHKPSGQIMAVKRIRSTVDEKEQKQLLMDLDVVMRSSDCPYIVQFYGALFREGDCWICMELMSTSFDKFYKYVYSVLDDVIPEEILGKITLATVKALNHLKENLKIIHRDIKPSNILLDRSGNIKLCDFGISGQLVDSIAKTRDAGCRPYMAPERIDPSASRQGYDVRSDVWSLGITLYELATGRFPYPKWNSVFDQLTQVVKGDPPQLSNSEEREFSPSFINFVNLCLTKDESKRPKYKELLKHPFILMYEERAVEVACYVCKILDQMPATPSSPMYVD

[2] = molecular target: T2, Tyrosine-protein kinase ZAP-70 (Homo sapiens) (UniProt P43403); assay: Selectivity interaction (KinomeScan (DiscoverX)) EUB0000229b ZAP70; details: at 10 µM
T2 sequence (whole entry): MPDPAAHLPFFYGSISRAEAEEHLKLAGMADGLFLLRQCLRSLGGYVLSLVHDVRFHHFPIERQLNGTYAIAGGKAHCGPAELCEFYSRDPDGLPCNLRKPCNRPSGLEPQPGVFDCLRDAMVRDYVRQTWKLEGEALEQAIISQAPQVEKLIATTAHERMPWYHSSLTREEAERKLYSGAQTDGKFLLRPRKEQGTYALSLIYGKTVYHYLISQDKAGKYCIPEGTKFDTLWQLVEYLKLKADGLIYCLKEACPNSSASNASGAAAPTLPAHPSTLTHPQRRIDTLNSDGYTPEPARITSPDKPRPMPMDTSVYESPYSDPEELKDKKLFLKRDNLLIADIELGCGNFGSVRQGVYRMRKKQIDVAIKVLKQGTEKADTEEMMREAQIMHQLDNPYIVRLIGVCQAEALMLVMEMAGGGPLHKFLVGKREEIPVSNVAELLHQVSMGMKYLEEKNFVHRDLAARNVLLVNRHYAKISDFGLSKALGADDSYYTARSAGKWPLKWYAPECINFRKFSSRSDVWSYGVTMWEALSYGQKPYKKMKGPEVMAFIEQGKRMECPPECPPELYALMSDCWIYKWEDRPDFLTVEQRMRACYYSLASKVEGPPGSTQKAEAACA

[3] = molecular target: T3, Cytoplasmic tyrosine-protein kinase BMX (Homo sapiens) (UniProt P51813); assay: Selectivity interaction (KinomeScan (DiscoverX)) EUB0000666a BMX; details: at 10 µM
T3 sequence (whole entry): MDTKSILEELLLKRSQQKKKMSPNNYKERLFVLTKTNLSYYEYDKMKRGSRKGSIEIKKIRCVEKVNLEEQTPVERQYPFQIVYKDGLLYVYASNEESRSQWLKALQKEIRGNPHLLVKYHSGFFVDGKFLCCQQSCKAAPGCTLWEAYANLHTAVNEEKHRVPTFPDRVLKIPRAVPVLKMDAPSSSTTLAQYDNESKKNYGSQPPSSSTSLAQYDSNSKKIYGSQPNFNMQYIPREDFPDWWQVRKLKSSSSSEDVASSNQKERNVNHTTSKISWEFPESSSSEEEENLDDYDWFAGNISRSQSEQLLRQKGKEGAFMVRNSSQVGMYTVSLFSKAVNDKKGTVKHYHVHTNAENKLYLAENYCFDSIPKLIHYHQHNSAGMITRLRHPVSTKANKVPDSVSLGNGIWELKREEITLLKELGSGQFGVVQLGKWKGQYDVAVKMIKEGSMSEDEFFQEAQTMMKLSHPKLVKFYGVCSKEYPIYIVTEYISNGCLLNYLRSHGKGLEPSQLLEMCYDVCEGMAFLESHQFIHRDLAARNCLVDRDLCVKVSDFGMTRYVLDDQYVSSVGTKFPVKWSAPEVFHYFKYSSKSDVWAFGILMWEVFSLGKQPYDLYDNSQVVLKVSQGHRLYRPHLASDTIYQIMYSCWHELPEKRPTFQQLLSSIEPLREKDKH

[4] = molecular target: T4, Ephrin type-B receptor 4 (Homo sapiens) (UniProt P54760); assay: Selectivity interaction (KinomeScan (DiscoverX)) EUB0000092b EPHB4; details: at 10 µM
T4 sequence (whole entry): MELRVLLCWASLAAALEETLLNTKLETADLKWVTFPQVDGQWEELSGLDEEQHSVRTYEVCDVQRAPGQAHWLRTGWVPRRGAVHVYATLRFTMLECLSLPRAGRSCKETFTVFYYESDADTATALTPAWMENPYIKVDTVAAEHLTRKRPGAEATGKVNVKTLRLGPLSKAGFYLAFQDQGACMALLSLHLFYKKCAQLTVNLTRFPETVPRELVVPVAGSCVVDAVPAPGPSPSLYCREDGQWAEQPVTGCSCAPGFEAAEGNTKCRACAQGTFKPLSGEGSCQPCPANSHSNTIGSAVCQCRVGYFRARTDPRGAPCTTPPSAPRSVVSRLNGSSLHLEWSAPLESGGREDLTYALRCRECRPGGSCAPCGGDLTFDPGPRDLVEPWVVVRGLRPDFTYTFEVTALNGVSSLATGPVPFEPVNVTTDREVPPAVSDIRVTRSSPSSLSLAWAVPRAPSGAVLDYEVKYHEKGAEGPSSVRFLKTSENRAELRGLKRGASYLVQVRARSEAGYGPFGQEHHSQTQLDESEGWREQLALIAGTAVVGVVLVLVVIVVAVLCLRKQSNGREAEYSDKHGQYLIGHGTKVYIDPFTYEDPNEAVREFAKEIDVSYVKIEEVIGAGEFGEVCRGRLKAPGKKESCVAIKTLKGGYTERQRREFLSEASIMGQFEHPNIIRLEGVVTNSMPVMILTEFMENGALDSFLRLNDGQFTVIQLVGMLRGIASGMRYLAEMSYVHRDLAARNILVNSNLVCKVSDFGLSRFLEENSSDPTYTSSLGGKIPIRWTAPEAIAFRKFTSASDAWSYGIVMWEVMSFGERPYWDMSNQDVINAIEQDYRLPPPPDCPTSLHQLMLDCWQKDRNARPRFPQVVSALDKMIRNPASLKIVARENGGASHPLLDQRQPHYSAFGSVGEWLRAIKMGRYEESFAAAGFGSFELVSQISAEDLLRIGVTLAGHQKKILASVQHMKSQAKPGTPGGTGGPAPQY

## CC(C)(O)[C@H](F)CN1Cc2cc(NC(=O)c3cnn4cccnc34)c(N3CCOCC3)cc2C1=O
[1]
  dTM: 0.9 K

## COc1cc(N(C)c2ccnc3ccc(C(F)(F)F)cc23)cc(OC)c1OC
[2]
  % binding: 100%

## O=C(NOC[C@H](O)CO)c1ccc(F)c(F)c1Nc1ccc(I)cc1F
[3]
  % of control: 92%

## CCC(=O)N1CCN(c2ccc(-n3c(=O)ccc4cnc5ccc(-c6cnc7ccccc7c6)cc5c43)cc2C(F)(F)F)CC1
[4]
  % of control: 85%
